According to patent US20260243775A1, “CELL LABELING AND ANNOTATION IN MICRO-ORGANOSPHERES” (Xilis, Inc., priority 2023, published 2026):

Tested on: CRC cells co-encapsulated with fibroblasts, endothelial cells, and PBMCs in MOS
Assay: Live/dead staining (Calcein AM / ethidium homodimer) of EpCAM-stained MOS after drug treatment
Assay type: cell-based
Conditions: higher dose (33.3 μM) versus 1.23 μM, treated for three days, FIG. 3A
Excerpt: FIG. 3A includes representative images showing live MOS staining of CRC cells co-encapsulated with fibroblasts, endothelial cells, and PBMCs, stained with EpCAM and treated with vehicle or oxaliplatin for three days, followed by staining with Calcein AM (CAM) and ethidium homodimer (EtH). FIG. 3B is a graph plotting differential drug responses observed for the CRC only condition and for CRCs co-encapsulated with the non-cancer cells, measured by CTG assay.
Additional images of stained live MOS are shown in FIG. 3A, which includes representative images of live MOS containing CRC cells co-encapsulated with fibroblasts, endothelial cells, and PBMCs, where the MOS were stained with EpCAM and treated with vehicle or oxaliplatin (1.23 μM or 33.3 μM) for three days, followed by staining with Calcein AM (CAM) and ethidium homodimer (EtH). […] When MOS encapsulating only CRC cells or MOS co-encapsulating CRC cells, fibroblasts, endothelial cells, and PBMCs were treated with oxaliplatin, differential responses to the treatment were observed between the CRC-only MOS and the co-encapsulated MOS, as determined by CTG assay (FIG. 3B). However, the drug responses of the CRC-only MOS versus the CRC/non-cancer cell co-encapsulated MOS were much more similar based on live cell dye (CAM): dead cell dye (EtH) ratios from EpCAM positive (FIG. 3C).

## O=C1[O][Pt]2([NH][C@@H]3CCCC[C@H]3[NH]2)[O]C1=O [oxaliplatin]
  EtH (dead) and Calcein AM (live) staining, degree of killing: a greater degree of killing
